Tests used:
Rheumatoid factor (RF) = assay: Serum RF analysis of CIA rats fed PA crude extracts (Embodiment 2); assay type: in vivo, Lewis rats
Experimental: The animal test scheme is shown as FIG. 2. Bovine collagen Type II (Bovine C II) was dissolved in 0.1 M acetic acid solution, stirred to dissolve thoroughly, and formulated into solutions with concentrations of 1.5 and 3 mg/ml, which were stored in 4° C. for later use. For the first immune injection, 100 μl of C II solution was emulsified with an equal amount of CFA, and injected subcutaneously (200 μl/rat) in the root portions of tails of the rats after the emulsification was complete. […] After about 15 days, the second immunization was done. 100 μl of C II solution was emulsified with an equal amount of IFA, and injected subcutaneously (200 μl/rat) in the root portions of tails of the rats after the emulsification was complete. Approximately from Day 20, the symptoms of arthritis were observed (CIA rats), and PA and indomethacin were fed until Day 45. [table] 1. Collagen was formulated in a coating buffer to a concentration of 40 μg/ml, 0.1 ml of which was added into a 96-well micro plate respectively, and was kept in 4° C. overnight. 2. After washing with Tris buffer three times, 0.2 ml of blocking buffer containing 1% BSA was added into each well. The reaction lasted for 2 hours at room temperature, and then was washed by Tris buffer three times again. 3. […] Finally, absorption (O.D) value was read out at the wavelength of 450 nm.

[1] = Body weight of CIA rats fed PA crude extracts (Embodiment 2); assay type: in vivo, Lewis rats; conditions: gavage from about Day 20 until Day 45, PA-H 375, PA-L 75, indomethacin 2.5 mg/kg/day, FIG. 3
Experimental: The test animals, Lewis rats, 8 weeks old and about 155-165 g in weight, were all purchased from National Laboratory Animal Center. They were raised in an animal house with a 12-hour light/12-hour dark cycle, a room temperature of 23±1° C., moderate moisture, and good air conditioning, wherein water and feed were provided ad libitum. In addition, during the operation, all the test animals conformed to the criteria of the International Committee on Laboratory Animals' standard regulation. The animal test scheme is shown as FIG. 2. Bovine collagen Type II (Bovine C II) was dissolved in 0.1 M acetic acid solution, stirred to dissolve thoroughly, and formulated into solutions with concentrations of 1.5 and 3 mg/ml, which were stored in 4° C. for later use. For the first immune injection, 100 μl of C II solution was emulsified with an equal amount of CFA, and injected subcutaneously (200 μl/rat) in the root portions of tails of the rats after the emulsification was complete. […] After about 15 days, the second immunization was done. 100 μl of C II solution was emulsified with an equal amount of IFA, and injected subcutaneously (200 μl/rat) in the root portions of tails of the rats after the emulsification was complete. Approximately from Day 20, the symptoms of arthritis were observed (CIA rats), and PA and indomethacin were fed until Day 45. [table] 1. […]

COc1ccc2c(c1)c(CC(=O)O)c(C)n2C(=O)c1ccc(Cl)cc1 [indomethacin, Indomethacin]
reduction of serum RF value (Rheumatoid factor (RF); Day 35 compared with Day 20, FIG. 6): 47%
reduction of serum RF value (Rheumatoid factor (RF); Day 45 compared with Day 20, FIG. 6): 51%
effect on the body weight of CIA rats (weight reduction) [1]: weight reduction is efficiently avoided
